Measurements taken from ChEMBL document CHEMBL1201862, “PubChem BioAssay data set” (2004).
Activity calls are given as the source filed them.

Key:
[1] = target: T1, Mannose-6-phosphate isomerase (Homo sapiens, UniProt P34949); test: PMI enzyme inhibitors, confirmation, biochemical, fluorescence intensity (AID 1535)
T1 sequence (P34949 whole entry): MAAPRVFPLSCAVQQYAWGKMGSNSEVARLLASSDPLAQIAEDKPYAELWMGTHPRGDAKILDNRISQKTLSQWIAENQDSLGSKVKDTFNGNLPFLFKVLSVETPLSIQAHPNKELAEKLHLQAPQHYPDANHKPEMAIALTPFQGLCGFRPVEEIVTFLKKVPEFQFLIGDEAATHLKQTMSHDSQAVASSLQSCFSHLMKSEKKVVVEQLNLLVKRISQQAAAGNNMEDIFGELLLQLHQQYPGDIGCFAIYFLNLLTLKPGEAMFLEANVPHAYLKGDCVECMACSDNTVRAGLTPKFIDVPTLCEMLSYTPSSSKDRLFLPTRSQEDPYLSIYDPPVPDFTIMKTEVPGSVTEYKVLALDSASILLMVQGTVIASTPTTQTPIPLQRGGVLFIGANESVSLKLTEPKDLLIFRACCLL

cells [2] = format: functional, cell-based
cells [3] = format: functional, cell-based; remark: listed apart in the source
Exodeoxyribonuclease V = Exodeoxyribonuclease V (Escherichia coli (strain K12), UniProt P04993+P07648+P08394); test: E. coli RecBCD inhibitors, dose response, counter-screen for AddAB inhibitor project, absorbance, V66 E. coli, mutant T4 phage (AID 492957); format: functional, cell-based, Escherichia coli str. K-12 substr. MG1655
Exodeoxyribonuclease V, sequence (P04993 whole entry): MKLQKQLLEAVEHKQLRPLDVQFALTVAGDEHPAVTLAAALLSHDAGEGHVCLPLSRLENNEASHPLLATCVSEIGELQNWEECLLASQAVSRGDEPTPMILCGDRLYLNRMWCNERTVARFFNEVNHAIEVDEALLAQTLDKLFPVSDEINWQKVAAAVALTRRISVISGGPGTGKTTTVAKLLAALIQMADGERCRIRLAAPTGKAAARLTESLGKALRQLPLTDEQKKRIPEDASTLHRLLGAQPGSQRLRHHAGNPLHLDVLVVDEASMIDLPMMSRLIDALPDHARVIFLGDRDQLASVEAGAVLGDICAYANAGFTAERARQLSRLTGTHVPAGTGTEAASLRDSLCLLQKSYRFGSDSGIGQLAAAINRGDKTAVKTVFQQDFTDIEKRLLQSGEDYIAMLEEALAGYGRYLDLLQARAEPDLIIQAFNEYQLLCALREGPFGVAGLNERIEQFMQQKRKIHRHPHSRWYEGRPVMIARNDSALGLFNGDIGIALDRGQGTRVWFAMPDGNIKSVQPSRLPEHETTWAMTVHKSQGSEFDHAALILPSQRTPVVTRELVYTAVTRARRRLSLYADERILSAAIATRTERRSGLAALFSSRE
Exodeoxyribonuclease V, sequence (P07648 whole entry): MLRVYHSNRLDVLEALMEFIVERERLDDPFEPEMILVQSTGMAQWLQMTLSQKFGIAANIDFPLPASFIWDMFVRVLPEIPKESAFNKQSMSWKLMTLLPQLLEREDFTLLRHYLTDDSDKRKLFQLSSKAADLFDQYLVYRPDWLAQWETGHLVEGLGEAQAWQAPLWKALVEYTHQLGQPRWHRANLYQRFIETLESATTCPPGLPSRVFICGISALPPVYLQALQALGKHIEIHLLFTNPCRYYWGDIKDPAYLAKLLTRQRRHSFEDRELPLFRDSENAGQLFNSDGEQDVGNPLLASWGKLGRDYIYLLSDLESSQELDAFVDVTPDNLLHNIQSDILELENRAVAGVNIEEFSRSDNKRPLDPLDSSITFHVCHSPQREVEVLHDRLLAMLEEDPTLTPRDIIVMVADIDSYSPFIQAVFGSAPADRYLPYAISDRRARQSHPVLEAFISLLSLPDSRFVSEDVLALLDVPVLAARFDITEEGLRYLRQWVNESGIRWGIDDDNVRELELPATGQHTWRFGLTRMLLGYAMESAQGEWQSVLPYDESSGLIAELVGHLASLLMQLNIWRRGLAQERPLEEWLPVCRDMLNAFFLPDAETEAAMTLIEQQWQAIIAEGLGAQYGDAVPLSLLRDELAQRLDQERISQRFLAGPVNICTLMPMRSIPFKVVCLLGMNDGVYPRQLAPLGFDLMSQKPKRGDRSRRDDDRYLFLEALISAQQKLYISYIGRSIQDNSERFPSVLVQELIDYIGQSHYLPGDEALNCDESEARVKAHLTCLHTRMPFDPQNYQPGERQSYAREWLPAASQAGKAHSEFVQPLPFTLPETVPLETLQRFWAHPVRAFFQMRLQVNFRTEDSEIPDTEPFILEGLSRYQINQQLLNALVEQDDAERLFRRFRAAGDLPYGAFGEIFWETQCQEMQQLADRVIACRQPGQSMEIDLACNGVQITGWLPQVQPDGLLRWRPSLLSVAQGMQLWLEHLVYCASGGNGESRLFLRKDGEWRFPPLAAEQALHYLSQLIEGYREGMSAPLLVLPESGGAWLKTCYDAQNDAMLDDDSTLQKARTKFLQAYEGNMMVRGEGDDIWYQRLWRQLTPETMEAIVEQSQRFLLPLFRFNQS
Exodeoxyribonuclease V, sequence (P08394 whole entry): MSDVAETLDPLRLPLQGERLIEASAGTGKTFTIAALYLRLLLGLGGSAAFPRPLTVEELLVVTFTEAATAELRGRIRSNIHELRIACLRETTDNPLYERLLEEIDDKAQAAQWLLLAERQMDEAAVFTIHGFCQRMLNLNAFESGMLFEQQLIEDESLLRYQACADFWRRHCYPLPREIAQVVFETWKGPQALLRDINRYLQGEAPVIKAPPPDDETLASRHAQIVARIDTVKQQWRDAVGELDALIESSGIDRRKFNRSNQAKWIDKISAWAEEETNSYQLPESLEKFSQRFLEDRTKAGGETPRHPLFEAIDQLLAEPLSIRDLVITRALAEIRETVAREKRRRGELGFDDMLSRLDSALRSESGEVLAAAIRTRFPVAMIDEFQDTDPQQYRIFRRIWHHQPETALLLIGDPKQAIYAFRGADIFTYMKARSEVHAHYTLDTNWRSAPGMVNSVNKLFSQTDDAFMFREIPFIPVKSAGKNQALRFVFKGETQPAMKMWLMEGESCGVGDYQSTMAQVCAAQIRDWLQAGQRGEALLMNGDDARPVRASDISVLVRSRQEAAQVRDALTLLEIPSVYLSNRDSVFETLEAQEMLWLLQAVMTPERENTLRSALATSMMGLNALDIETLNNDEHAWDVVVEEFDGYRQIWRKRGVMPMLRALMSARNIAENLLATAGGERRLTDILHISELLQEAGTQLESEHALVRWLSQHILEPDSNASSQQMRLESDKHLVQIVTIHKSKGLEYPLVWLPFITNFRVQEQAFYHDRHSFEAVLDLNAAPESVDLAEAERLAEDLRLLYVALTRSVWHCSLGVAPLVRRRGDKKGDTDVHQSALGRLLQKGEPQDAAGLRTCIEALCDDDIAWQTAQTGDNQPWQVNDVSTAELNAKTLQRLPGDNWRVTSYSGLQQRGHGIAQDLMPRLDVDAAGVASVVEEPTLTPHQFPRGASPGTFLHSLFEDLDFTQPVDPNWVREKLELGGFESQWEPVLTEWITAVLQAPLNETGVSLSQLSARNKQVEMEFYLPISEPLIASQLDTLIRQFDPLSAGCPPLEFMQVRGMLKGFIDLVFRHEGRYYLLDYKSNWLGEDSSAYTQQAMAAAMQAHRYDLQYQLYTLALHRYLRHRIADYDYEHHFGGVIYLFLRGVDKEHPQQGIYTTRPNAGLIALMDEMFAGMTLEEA

[4] = Counterscreen for AddAB inhibitors: absorbance-based bacterial cell-based high throughput dose response assay for inhibitors of bacterial viability. [Related pubchem assays (depositor defined):AID435030, AID449728, AID449731, AID488942, AID488955, AID488956]; format: functional
HEK293 [5] = test: inhibitors of LMP1-driven NF-kB reporter, dose response, cell-based, HEK293, luciferase, cherry-pick (AID 588343); format: functional; settings: Homo sapiens
[6] = target: Heat shock protein HSP 90-alpha (Homo sapiens, UniProt P07900); format: functional, organism-based
[7] = Shn3 3'UTR reporter inhibitors, dose response, cell-based, Clone20 osteoblasts, firefly luciferase, cherry-picked (AID 624132); format: functional;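 note: firefly luciferase luminescence from reporter carrying the Shn3 3'UTR in osteoblasts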
[8] = HepG2 cell cytotoxicity, dose response, cytotoxicity control for Shn3 inhibitor project, CellTiter-Glo, cherry-picked (AID 624134); format: functional, cell-based
[9] = control 3'UTR Renilla luciferase suppression, dose response, counter-screen for Shn3 inhibitor project, cell-based, Clone20-Shn3RL, cherry-picked (AID 624133); format: functional
[10] = target: T2, Dual specificity protein phosphatase 3 (Homo sapiens, UniProt P51452); test: VHR1 phosphatase inhibitors, primary screen, biochemical, absorbance, uHTS (AID 1654)
T2 sequence (P51452 whole entry): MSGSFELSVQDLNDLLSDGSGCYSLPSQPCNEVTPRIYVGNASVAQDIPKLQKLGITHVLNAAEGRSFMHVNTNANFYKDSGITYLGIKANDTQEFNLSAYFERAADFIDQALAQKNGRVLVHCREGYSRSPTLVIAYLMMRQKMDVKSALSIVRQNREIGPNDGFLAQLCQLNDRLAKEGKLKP

[11] = target: T2, Dual specificity protein phosphatase 3; test: VHR1 phosphatase inhibitors, biochemical (AID 1878)
[12] = target: T3, Dual specificity protein phosphatase 6 (Rattus norvegicus, UniProt Q64346); test: MKP-3 phosphatase inhibitors, primary screen, biochemical, rat enzyme, in vitro (AID 425)
T3 sequence (Q64346 whole entry): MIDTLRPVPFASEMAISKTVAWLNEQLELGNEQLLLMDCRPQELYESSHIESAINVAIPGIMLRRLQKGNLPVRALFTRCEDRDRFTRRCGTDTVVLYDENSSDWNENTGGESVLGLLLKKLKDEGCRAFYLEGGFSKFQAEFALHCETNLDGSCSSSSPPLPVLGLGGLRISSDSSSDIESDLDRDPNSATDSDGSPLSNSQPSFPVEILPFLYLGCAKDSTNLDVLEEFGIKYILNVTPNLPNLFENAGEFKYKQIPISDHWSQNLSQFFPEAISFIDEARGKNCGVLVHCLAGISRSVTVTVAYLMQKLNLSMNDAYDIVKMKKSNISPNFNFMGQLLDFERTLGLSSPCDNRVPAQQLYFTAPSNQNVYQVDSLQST

Vero = Vero cell cytotoxicity, cytotoxicity control for flavivirus capping enzyme inhibitors (AID 588742); format: functional; settings: Chlorocebus sabaeus
Genome polyprotein = Genome polyprotein (dengue virus type 2, UniProt P29990); test: Dengue-2 NS5 methyltransferase inhibitors, primary screen, biochemical, confirmation dose response (AID 588689); format: functional
[13] = target: T4, Carboxy-terminal domain RNA polymerase II polypeptide A small phosphatase 1 (Homo sapiens, UniProt Q9GZU7); test: inhibitors of CTDSP1, concentration-response testing, biochemical assay, absorbance-based, actives from ultra-high-throughput screening (AID 540297); format: functional
T4 sequence (Q9GZU7 whole entry): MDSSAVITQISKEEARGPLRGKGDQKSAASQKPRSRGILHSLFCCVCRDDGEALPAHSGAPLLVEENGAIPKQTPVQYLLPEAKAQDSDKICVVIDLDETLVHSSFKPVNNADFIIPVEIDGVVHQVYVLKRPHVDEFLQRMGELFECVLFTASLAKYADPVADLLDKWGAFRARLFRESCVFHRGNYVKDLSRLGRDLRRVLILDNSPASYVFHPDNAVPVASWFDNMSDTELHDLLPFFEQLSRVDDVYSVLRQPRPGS

[14] = target: T5, Small ubiquitin-related modifier 1 (Homo sapiens, UniProt P63165); test: inhibitors of SUMO1 peptide binding, dose response, biochemical, fluorescence polarization, uHTS hits (AID 624382); format: functional; settings: read-out: IC50_Mean
T5 sequence (P63165 whole entry): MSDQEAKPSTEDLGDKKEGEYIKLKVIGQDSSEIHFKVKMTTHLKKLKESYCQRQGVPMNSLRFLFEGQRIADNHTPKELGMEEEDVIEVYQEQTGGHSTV

[15] = target: T5, Small ubiquitin-related modifier 1; test: inhibitors of SUMO1 partner interactions, dose response, biochemical, FRET (AID 624383); format: functional; settings: read-out: IC50_Mean
[16] = ARNT/TACC3 interaction disruptors, potency, confirmation, biochemical, AlphaScreen, cherry-picked samples (AID 651703); format: functional, Homo sapiens;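 note: His-tagged ARNT PAS-B domain paired with GST-TACC3 E629A dimer coactivator fragment; potency of inhibitors that break up the complex and lower AlphaScreen signal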
Trypsin = Trypsin (Sus scrofa, UniProt P00761); test: porcine trypsin inhibitors, dose response, selectivity assay for Rce1 protease inhibitor project, biochemical, quenched peptide fluorescence, cherry-pick (AID 488789)
Trypsin, sequence (P00761 whole entry): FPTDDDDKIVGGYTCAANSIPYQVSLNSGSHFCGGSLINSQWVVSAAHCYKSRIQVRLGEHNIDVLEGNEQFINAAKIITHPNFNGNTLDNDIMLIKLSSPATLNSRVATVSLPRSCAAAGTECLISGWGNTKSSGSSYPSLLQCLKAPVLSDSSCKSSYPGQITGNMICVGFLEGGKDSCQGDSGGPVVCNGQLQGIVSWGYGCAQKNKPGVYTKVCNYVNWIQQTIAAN

CAAX prenyl protease 2 [17] = target: T6, CAAX prenyl protease 2 (Saccharomyces cerevisiae S288c, UniProt Q03530); format: biochemical
T6 sequence (Q03530 whole entry): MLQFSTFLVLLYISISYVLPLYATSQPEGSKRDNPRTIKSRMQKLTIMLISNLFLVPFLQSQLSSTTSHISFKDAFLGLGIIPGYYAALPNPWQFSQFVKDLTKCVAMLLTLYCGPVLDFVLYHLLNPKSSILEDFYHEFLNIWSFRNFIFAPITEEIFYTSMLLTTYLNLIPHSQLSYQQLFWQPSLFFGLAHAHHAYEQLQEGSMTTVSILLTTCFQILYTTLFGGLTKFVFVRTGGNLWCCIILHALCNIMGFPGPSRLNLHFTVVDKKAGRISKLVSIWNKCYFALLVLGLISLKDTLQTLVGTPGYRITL

CAAX prenyl protease 2 [18] = target: CAAX prenyl protease 2 (Homo sapiens, UniProt Q9Y256); test: human Rce1 protease inhibitors, dose response, biochemical, yeast membranes, quenched-peptide fluorescence, cherry-pick (AID 588849)
CAAX prenyl protease 2 (Homo sapiens, UniProt Q9Y256), sequence (Q9Y256 whole entry): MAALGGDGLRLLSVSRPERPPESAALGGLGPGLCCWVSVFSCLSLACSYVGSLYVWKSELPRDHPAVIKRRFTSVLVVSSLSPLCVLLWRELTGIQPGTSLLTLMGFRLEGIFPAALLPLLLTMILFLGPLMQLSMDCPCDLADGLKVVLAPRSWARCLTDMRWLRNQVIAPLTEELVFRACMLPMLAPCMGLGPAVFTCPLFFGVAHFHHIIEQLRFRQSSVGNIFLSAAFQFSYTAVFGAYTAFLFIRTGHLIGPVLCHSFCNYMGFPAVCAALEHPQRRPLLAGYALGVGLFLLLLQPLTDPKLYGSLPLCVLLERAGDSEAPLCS

[19] = target: T7, Polyadenylate-binding protein 1 (Homo sapiens, UniProt P11940); test: PABP1 MLLE–PAM2 interaction inhibitors, dose response, miRNA deadenylation inhibitor project, biochemical, fluorescence polarization, Cy5-PAM2 peptide, secondary (AID 602260); format: functional; settings: read-out: IC50_Mean
T7 sequence (P11940 whole entry): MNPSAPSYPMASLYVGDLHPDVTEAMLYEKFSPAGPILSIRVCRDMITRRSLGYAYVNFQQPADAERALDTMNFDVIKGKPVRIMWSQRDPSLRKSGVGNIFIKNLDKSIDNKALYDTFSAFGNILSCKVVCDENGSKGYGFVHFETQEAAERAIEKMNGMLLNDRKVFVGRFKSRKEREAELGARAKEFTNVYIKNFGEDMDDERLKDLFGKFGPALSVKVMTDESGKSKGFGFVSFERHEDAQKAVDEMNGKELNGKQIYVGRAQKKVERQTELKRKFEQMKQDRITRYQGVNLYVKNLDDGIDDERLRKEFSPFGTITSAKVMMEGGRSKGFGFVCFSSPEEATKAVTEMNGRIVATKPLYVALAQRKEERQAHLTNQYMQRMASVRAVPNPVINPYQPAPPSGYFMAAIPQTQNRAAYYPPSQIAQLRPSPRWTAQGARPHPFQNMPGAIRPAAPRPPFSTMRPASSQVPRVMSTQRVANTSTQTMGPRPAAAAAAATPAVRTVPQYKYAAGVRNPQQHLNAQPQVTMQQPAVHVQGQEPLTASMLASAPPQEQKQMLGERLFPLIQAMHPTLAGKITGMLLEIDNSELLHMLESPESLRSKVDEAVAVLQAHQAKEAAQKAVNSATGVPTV

[20] = target: T7, Polyadenylate-binding protein 1; test: PABP1 MLLE–PAM2 binding inhibitor potency, dose response, biochemical, fluorescence polarization, FITC-PAM2 peptide (AID 602259); format: functional; settings: read-out: IC50_Mean
[21] = target: G-protein coupled receptor 55 (Homo sapiens, UniProt Q9Y2T6); test: GPR55 antagonists, SAR follow-up, counter-screen for GPR35 antagonist project, imaging, image-based (AID 2397); format: functional
G-protein coupled receptor 55, sequence (Q9Y2T6 whole entry): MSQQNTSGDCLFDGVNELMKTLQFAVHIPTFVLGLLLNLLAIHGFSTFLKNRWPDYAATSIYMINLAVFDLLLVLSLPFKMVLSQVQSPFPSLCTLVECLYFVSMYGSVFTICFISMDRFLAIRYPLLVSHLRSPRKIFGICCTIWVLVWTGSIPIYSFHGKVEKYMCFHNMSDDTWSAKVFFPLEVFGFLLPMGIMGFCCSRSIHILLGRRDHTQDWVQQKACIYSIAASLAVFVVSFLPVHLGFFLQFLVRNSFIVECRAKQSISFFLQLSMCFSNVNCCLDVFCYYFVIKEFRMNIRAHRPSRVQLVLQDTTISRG

[22] = target: Beta-2 adrenergic receptor (Homo sapiens, UniProt P07550); test: beta2AR agonists driving receptor internalization, dose response, cell-based, FAP fluorogen, flow cytometry, cherry pick 1 (AID 588763); format: functional
HEK293 [23] = test: cytotoxicity in HEK293T NF-kB-Luc cells, SAR follow-up, cytotoxicity control for NF-kB activator project, cell-based, resazurin fluorescence (AID 493251); format: functional; settings: Homo sapiens
Tumor necrosis factor = Tumor necrosis factor (Homo sapiens, UniProt P01375); test: TNFa-triggered NF-kB activation inhibitors, SAR follow-up, cell-based, revised (AID 2337); format: functional
Tumor necrosis factor, sequence (P01375 whole entry, the tested form may be a part): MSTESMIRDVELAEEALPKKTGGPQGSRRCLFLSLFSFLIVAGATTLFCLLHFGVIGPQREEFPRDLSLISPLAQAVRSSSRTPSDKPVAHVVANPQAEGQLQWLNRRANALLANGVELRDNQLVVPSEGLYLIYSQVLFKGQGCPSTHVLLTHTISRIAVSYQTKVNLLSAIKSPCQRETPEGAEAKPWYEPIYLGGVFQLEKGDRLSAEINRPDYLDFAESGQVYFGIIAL

[24] = target: T8, Nucleotide-binding oligomerization domain-containing protein 1 (Homo sapiens, UniProt Q9Y239); test: NOD1 signaling inhibitors, SAR follow-up, revised (AID 2333); format: functional
T8 sequence (Q9Y239 whole entry): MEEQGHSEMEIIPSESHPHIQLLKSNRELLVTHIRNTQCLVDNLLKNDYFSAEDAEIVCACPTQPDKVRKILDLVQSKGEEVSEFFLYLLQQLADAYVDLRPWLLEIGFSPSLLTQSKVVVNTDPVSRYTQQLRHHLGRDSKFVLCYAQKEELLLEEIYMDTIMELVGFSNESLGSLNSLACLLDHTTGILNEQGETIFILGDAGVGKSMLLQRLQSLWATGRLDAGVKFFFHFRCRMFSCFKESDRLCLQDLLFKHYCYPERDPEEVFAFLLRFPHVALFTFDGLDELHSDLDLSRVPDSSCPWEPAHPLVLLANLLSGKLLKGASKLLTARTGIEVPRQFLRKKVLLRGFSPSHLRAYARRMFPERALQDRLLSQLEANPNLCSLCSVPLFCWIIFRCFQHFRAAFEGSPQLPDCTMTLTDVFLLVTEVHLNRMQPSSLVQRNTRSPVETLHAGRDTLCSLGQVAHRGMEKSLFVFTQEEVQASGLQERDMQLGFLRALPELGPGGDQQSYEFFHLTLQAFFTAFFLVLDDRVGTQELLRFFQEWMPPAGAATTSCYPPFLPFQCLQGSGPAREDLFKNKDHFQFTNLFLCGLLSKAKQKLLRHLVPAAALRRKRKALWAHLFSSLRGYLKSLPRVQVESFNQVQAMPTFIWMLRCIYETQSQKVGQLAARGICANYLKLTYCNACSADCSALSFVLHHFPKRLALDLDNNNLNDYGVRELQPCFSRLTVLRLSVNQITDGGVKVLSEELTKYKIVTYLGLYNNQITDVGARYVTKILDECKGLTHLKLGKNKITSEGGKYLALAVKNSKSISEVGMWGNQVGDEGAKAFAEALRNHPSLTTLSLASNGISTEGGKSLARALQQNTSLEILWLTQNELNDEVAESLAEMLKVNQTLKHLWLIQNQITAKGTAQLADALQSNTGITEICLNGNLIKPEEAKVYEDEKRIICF

HEK293 [25] = test: cells; settings: Homo sapiens

## Clc1nss/c1=N\c1nc2ccccc2[nH]1
[1]
  IC50: 98.1 µM (active)

## CC(C)C(=O)NC(c1ccc(Cl)cc1Cl)c1ccc2cccnc2c1O (stereo unspecified)
Cells [2]
  EC50: 7.49 µM (active)
Cells [3]
  EC50: > 350 µM (not active)
Exodeoxyribonuclease V
  IC50: > 119 µM (inactive)
[4]
  IC50: > 119 µM (inactive)
HEK293 [5]
  AC50: 4.52 µM (active)
[6]
  AC50: 25.5 µM (active)
[7]
  AC50: 0.691 µM (active)
[8]
  AC50: 1.11 µM (active)
[9]
  AC50: 1.6 µM (active)

## COc1ccc(OCC(O)CNc2ccc(Br)cc2)cc1 (stereo unspecified)
Exodeoxyribonuclease V
  IC50: > 119 µM (inactive)
[4]
  IC50: > 119 µM (inactive)

## Cc1c(CCC(=O)O)c(=O)oc2c(C)c3occ(-c4ccc(Br)cc4)c3cc12
[10]
  IC50: 11.1 µM (active)
[11]
  IC50: 11.3 µM (active)
[12]
  IC50: 69.2 µM (active)
Vero
  CC50: > 40 µM (active)
Genome polyprotein
  IC50: 33.2 µM (active)
[13]
  IC50: 3.57 µM (active)
[14]
  IC50: > 66.6 µM (inactive)
[15]
  IC50: 12.6 µM (active)
[16]
  AC50: 99.5 µM (active)

## COC(=O)Nc1nnc(-c2ccncc2)s1
Trypsin
  AC50: 12.5 µM (active)
CAAX prenyl protease 2 [17]
  AC50: 9.58 µM (active)
CAAX prenyl protease 2 [18]
  AC50: 5.84 µM (active)
[19]
  IC50: > 66 µM (inactive)
[20]
  IC50: > 66 µM (inactive)

## c1ccc(Cn2ncc3c(N4CCN(c5ccccc5)CC4)ncnc32)cc1
[21]
  IC50: 29.1 µM (inactive)

## CCCCN(CCCC)c1nc2ccccc2nc1NS(=O)(=O)c1ccc(NC(C)=O)cc1
[22]
  EC50: 0.0203 µM (active)

## COC(=O)CSc1nc2ccc(NC(=O)c3ccccc3C(=O)N3CCOCC3)cc2s1
[21]
  IC50: > 32 µM (inactive)

## O=C(O)CCc1nc(-c2ccccc2)no1
HEK293 [23]
  IC50: > 80 µM (inactive)

## CCOC(=O)c1ccc(NC(=O)c2ccc(CCN3CCc4ccccc4C3)cc2)cc1
Tumor necrosis factor
  IC50: 10.8 µM (active)
[24]
  IC50: 10.6 µM (active)
HEK293 [25]
  IC50: > 20 µM (inactive)

## CCc1cc(C(=O)NC2CCCc3c2cnn3-c2ccc(F)cc2F)no1 (stereo unspecified)
Tumor necrosis factor
  IC50: > 20 µM (inactive)
[24]
  IC50: 10.4 µM (active)
HEK293 [25]
  IC50: > 20 µM (inactive)
